Experimental data published in PubChem BioAssay (NCI).
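48-hour exposure; five concentrations; linearly interpolated endpoints. GI50 is the concentration that inhibits growth by half. TGI: total growth inhibition.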

Tests used:
Assay in all cases: NCI anticancer screen, dose series, 48 h
MCF7 breast = test system: MCF7 breast
SR leukemia = test system: SR leukemia
SW-620 colon = test system: SW-620 colon
MOLT-4 leukemia = test system: MOLT-4 leukemia
BT-549 breast = test system: BT-549 breast
SK-MEL-2 melanoma = test system: SK-MEL-2 melanoma
SN12C renal = test system: SN12C renal
T-47D breast = test system: T-47D breast
EKVX NSCLC = test system: EKVX NSCLC
HCT-15 colon = test system: HCT-15 colon
HCC-2998 colon = test system: HCC-2998 colon
TK-10 renal = test system: TK-10 renal
ACHN renal = test system: ACHN renal
CCRF-CEM leukemia = test system: CCRF-CEM leukemia
HL-60(TB) leukemia = test system: HL-60(TB) leukemia
HOP-62 NSCLC = test system: HOP-62 NSCLC
U251 CNS = test system: U251 CNS
UACC-257 melanoma = test system: UACC-257 melanoma
MDA-MB-435 = test system: MDA-MB-435
SNB-75 CNS = test system: SNB-75 CNS
KM12 colon = test system: KM12 colon
LOX IMVI melanoma = test system: LOX IMVI melanoma
PC-3 prostate = test system: PC-3 prostate
CAKI-1 renal = test system: CAKI-1 renal
OVCAR-5 ovarian = test system: OVCAR-5 ovarian
OVCAR-3 ovarian = test system: OVCAR-3 ovarian
HT29 colon = test system: HT29 colon
M14 melanoma = test system: M14 melanoma
SF-268 CNS = test system: SF-268 CNS
RXF 393 renal = test system: RXF 393 renal
SF-295 CNS = test system: SF-295 CNS
RPMI-8226 leukemia = test system: RPMI-8226 leukemia
MALME-3M melanoma = test system: MALME-3M melanoma
NCI-H522 lung = test system: NCI-H522 lung
OVCAR-8 ovarian = test system: OVCAR-8 ovarian
NCI-H460 lung = test system: NCI-H460 lung
DU-145 prostate = test system: DU-145 prostate
NCI-H226 lung = test system: NCI-H226 lung
UO-31 renal = test system: UO-31 renal
SNB-19 CNS = test system: SNB-19 CNS
SK-OV-3 ovarian = test system: SK-OV-3 ovarian
UACC-62 melanoma = test system: UACC-62 melanoma
SK-MEL-5 melanoma = test system: SK-MEL-5 melanoma
A498 renal = test system: A498 renal
HS 578T breast = test system: HS 578T breast
HOP-92 NSCLC = test system: HOP-92 NSCLC
K-562 leukemia = test system: K-562 leukemia
NCI/ADR-RES ovarian = test system: NCI/ADR-RES ovarian
NCI-H23 lung = test system: NCI-H23 lung
SK-MEL-28 melanoma = test system: SK-MEL-28 melanoma
IGROV1 ovarian = test system: IGROV1 ovarian
MDA-MB-231 breast = test system: MDA-MB-231 breast
COLO 205 colon = test system: COLO 205 colon
786-0 renal = test system: 786-0 renal
A549 NSCLC = test system: A549 NSCLC
HCT-116 colon = test system: HCT-116 colon
OVCAR-4 ovarian = test system: OVCAR-4 ovarian
SF-539 CNS = test system: SF-539 CNS

Molecule `COc1cc(C2C3=C(COC3=O)N(CCO)c3cc4c(cc32)OCCO4)cc(OC)c1O` (stereo not given) has a GI50 (MCF7 breast) of 0.957 µM, a TGI (MCF7 breast) greater than 50 µM and a GI50 (SR leukemia) of 1.86 µM. The TGI (SR leukemia) was greater than 50 µM, the GI50 (SW-620 colon) was 1.83 µM and the TGI (SW-620 colon) was greater than 50 µM. It also gave a GI50 (MOLT-4 leukemia) of 3.68 µM, a TGI (MOLT-4 leukemia) greater than 50 µM and a GI50 (BT-549 breast) of 5.71 µM. It also gave a TGI (BT-549 breast) greater than 27.8 µM, a TGI (SK-MEL-2 melanoma) greater than 13.4 µM and a GI50 (SN12C renal) of 4.1 µM. It also gave a TGI (SN12C renal) greater than 50 µM, a GI50 (T-47D breast) of 3.38 µM and a TGI (T-47D breast) greater than 50 µM. For the same molecule, the GI50 (EKVX NSCLC) was 3.5 µM, the TGI (EKVX NSCLC) was greater than 50 µM and the GI50 (HCT-15 colon) was 11.7 µM. It also gave a TGI (HCT-15 colon) greater than 50 µM, a GI50 (HCC-2998 colon) of 2.04 µM and a TGI (HCC-2998 colon) of 19 µM. For the same molecule, the GI50 (TK-10 renal) was 6.61 µM, the TGI (TK-10 renal) was greater than 50 µM and the GI50 (ACHN renal) was 5.94 µM. For the same molecule, the TGI (ACHN renal) was greater than 50 µM, the GI50 (CCRF-CEM leukemia) was 1.84 µM and the TGI (CCRF-CEM leukemia) was greater than 50 µM. It also gave a GI50 (HL-60(TB) leukemia) of 1.52 µM, a TGI (HL-60(TB) leukemia) greater than 13.5 µM and a GI50 (HOP-62 NSCLC) of 2.72 µM. For the same molecule, the TGI (HOP-62 NSCLC) was greater than 50 µM, the GI50 (U251 CNS) was 2 µM and the TGI (U251 CNS) was greater than 50 µM. The GI50 (UACC-257 melanoma) was greater than 10.2 µM, the TGI (UACC-257 melanoma) was greater than 50 µM and the GI50 (MDA-MB-435) was 0.331 µM. It also gave a TGI (MDA-MB-435) of 1.71 µM, a GI50 (SNB-75 CNS) of 0.713 µM and a TGI (SNB-75 CNS) greater than 50 µM. The GI50 (KM12 colon) was 1.5 µM, the TGI (KM12 colon) was greater than 37 µM and the GI50 (LOX IMVI melanoma) was 2.49 µM. For the same molecule, the TGI (LOX IMVI melanoma) was greater than 50 µM, the GI50 (PC-3 prostate) was 2.17 µM and the TGI (PC-3 prostate) was greater than 50 µM. It also gave a GI50 (CAKI-1 renal) of 2.84 µM, a TGI (CAKI-1 renal) greater than 45 µM and a GI50 (OVCAR-5 ovarian) of 49.9 µM. For the same molecule, the TGI (OVCAR-5 ovarian) was greater than 50 µM, the GI50 (OVCAR-3 ovarian) was 0.947 µM and the TGI (OVCAR-3 ovarian) was 2.29 µM. For the same molecule, the GI50 (HT29 colon) was 1.67 µM, the TGI (HT29 colon) was greater than 18.5 µM and the GI50 (M14 melanoma) was 1.43 µM. It also gave a TGI (M14 melanoma) greater than 21 µM, a GI50 (SF-268 CNS) of 3.38 µM and a TGI (SF-268 CNS) greater than 50 µM. It also gave a GI50 (RXF 393 renal) of 0.971 µM, a TGI (RXF 393 renal) greater than 50 µM and a GI50 (SF-295 CNS) of 1.22 µM. For the same molecule, the TGI (SF-295 CNS) was 4.12 µM, the GI50 (RPMI-8226 leukemia) was 2.18 µM and the TGI (RPMI-8226 leukemia) was greater than 50 µM. The GI50 (MALME-3M melanoma) was 1.23 µM, the TGI (MALME-3M melanoma) was greater than 50 µM and the GI50 (NCI-H522 lung) was 0.182 µM. It also gave a TGI (NCI-H522 lung) of 2.8 µM, a GI50 (OVCAR-8 ovarian) of 2.76 µM and a TGI (OVCAR-8 ovarian) greater than 50 µM. For the same molecule, the GI50 (NCI-H460 lung) was 1.75 µM, the TGI (NCI-H460 lung) was greater than 28.5 µM and the GI50 (DU-145 prostate) was 1.71 µM. It also gave a TGI (DU-145 prostate) greater than 21.7 µM, a GI50 (NCI-H226 lung) greater than 19.5 µM and a TGI (NCI-H226 lung) greater than 50 µM. For the same molecule, the GI50 (UO-31 renal) was greater than 16.7 µM, the TGI (UO-31 renal) was greater than 50 µM and the GI50 (SNB-19 CNS) was 2.11 µM. It also gave a TGI (SNB-19 CNS) greater than 50 µM, a GI50 (SK-OV-3 ovarian) of 2.29 µM and a TGI (SK-OV-3 ovarian) greater than 50 µM. It also gave a GI50 (UACC-62 melanoma) of 0.961 µM, a TGI (UACC-62 melanoma) greater than 50 µM and a GI50 (SK-MEL-5 melanoma) of 1.29 µM. It also gave a TGI (SK-MEL-5 melanoma) greater than 20.5 µM, a GI50 (A498 renal) of 1.41 µM and a TGI (A498 renal) greater than 23.4 µM. It also gave a GI50 (HS 578T breast) of 1.14 µM, a TGI (HS 578T breast) greater than 50 µM and a GI50 (HOP-92 NSCLC) greater than 50 µM. The TGI (HOP-92 NSCLC) was greater than 50 µM, the GI50 (K-562 leukemia) was 1.89 µM and the TGI (K-562 leukemia) was greater than 50 µM. It also gave a GI50 (NCI/ADR-RES ovarian) greater than 31.8 µM, a TGI (NCI/ADR-RES ovarian) greater than 50 µM and a GI50 (NCI-H23 lung) of 2.46 µM. It also gave a TGI (NCI-H23 lung) greater than 50 µM, a GI50 (SK-MEL-28 melanoma) of 1.15 µM and a TGI (SK-MEL-28 melanoma) greater than 50 µM. For the same molecule, the GI50 (IGROV1 ovarian) was 1.17 µM, the TGI (IGROV1 ovarian) was greater than 16.5 µM and the GI50 (MDA-MB-231 breast) was 4.41 µM. It also gave a TGI (MDA-MB-231 breast) greater than 50 µM, a GI50 (COLO 205 colon) of 1.67 µM and a TGI (COLO 205 colon) of 12 µM. The GI50 (786-0 renal) was 7.03 µM, the TGI (786-0 renal) was greater than 50 µM and the GI50 (A549 NSCLC) was 9.71 µM. It also gave a TGI (A549 NSCLC) greater than 50 µM, a GI50 (HCT-116 colon) of 2.15 µM and a TGI (HCT-116 colon) greater than 50 µM. The GI50 (OVCAR-4 ovarian) was 3.78 µM, the TGI (OVCAR-4 ovarian) was greater than 50 µM and the GI50 (SF-539 CNS) was 1.22 µM. It also gave a TGI (SF-539 CNS) greater than 14.8 µM.
